Laboratory results: PubChem BioAssay (NCI)
“And” between values parts separate entries of the source, which are not always exact repeats. Equal values may be shown once.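 Following 48 hours of exposure in 96-well plates, responses at five concentrations were used to interpolate endpoints linearly. Abbreviation: GI50, concentration required for 50% inhibition of growth. TGI: total growth inhibition.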

Key:
Assay in all cases: NCI-60 cell line screen, 48 h
A549 NSCLC = test system: A549 NSCLC
HS 578T breast = test system: HS 578T breast
LOX IMVI melanoma = test system: LOX IMVI melanoma
M14 melanoma = test system: M14 melanoma
MOLT-4 leukemia = test system: MOLT-4 leukemia
NCI-H226 lung = test system: NCI-H226 lung
OVCAR-4 ovarian = test system: OVCAR-4 ovarian
RXF 393 renal = test system: RXF 393 renal
SR leukemia = test system: SR leukemia
T-47D breast = test system: T-47D breast

NC(=S)N/N=C1\c2cc(Cl)ccc2-c2c1cc(Cl)cc2[N+](=O)[O-]
GI50 (A549 NSCLC): 4.05 µM | TGI (A549 NSCLC): > 100 µM | GI50 (HS 578T breast): 18.8 µM | TGI (HS 578T breast): > 100 µM | GI50 (LOX IMVI melanoma): 9.35 µM | TGI (LOX IMVI melanoma): > 100 µM | GI50 (M14 melanoma): 3.27 µM | TGI (M14 melanoma): > 100 µM | GI50 (MOLT-4 leukemia): 3.21 µM | TGI (MOLT-4 leukemia): 23.6 µM | GI50 (NCI-H226 lung): 5.25 µM | TGI (NCI-H226 lung): > 100 µM | GI50 (OVCAR-4 ovarian): 1.92 µM | TGI (OVCAR-4 ovarian): 8.35 µM | GI50 (RXF 393 renal): 10.4 µM | TGI (RXF 393 renal): 89.4 µM | GI50 (SR leukemia): 4.87 µM | TGI (SR leukemia): > 100 µM | GI50 (T-47D breast): 2.07 µM | TGI (T-47D breast): 7.65 µM

c1ccc(Nc2ncc(-c3ccccc3)o2)cc1
GI50 (A549 NSCLC): > 25 µM | TGI (A549 NSCLC): > 25 µM | GI50 (HS 578T breast): 11.5 µM | TGI (HS 578T breast): > 25 µM | GI50 (LOX IMVI melanoma): 22.6 µM | TGI (LOX IMVI melanoma): > 25 µM | GI50 (M14 melanoma): > 25 µM | TGI (M14 melanoma): > 25 µM | GI50 (MOLT-4 leukemia): > 25 µM | TGI (MOLT-4 leukemia): > 25 µM | GI50 (NCI-H226 lung): > 25 µM | TGI (NCI-H226 lung): > 25 µM | GI50 (OVCAR-4 ovarian): > 21.1 µM | TGI (OVCAR-4 ovarian): > 25 µM | GI50 (RXF 393 renal): > 19.7 µM | TGI (RXF 393 renal): > 25 µM | GI50 (SR leukemia): > 20.6 µM | TGI (SR leukemia): > 25 µM | GI50 (T-47D breast): > 25 µM | TGI (T-47D breast): > 25 µM

CCNC(=O)C#Cc1ccc2c(C(=Nc3ccc(CN(C)C)cc3)c3ccccc3)c(O)[nH]c2c1
GI50 (A549 NSCLC): 0.0401 µM | TGI (A549 NSCLC): > 5.34 µM | GI50 (HS 578T breast): 0.291 µM | TGI (HS 578T breast): 1.66 µM | GI50 (LOX IMVI melanoma): 0.0067 µM | TGI (LOX IMVI melanoma): 0.163 µM | GI50 (M14 melanoma): 0.00782 µM | TGI (M14 melanoma): 0.114 µM | GI50 (MOLT-4 leukemia): 0.199 µM | TGI (MOLT-4 leukemia): 2.76 µM | GI50 (NCI-H226 lung): 0.314 µM | TGI (NCI-H226 lung): > 10 µM | GI50 (OVCAR-4 ovarian): 0.61 µM | TGI (OVCAR-4 ovarian): 7.63 µM | GI50 (RXF 393 renal): 0.123 µM | TGI (RXF 393 renal): 0.703 µM | GI50 (SR leukemia): 0.00778 µM | TGI (SR leukemia): 2.93 µM | GI50 (T-47D breast): 3.21 µM | TGI (T-47D breast): > 6.87 µM

CC(=O)OCc1ccc2c(c1)C(O)NC(=O)O2 (stereo not given)
TGI (A549 NSCLC): > 100 µM | TGI (HS 578T breast): > 100 µM | TGI (LOX IMVI melanoma): > 100 µM | TGI (M14 melanoma): > 100 µM | TGI (MOLT-4 leukemia): > 100 µM | TGI (NCI-H226 lung): > 100 µM | TGI (OVCAR-4 ovarian): > 100 µM | TGI (RXF 393 renal): > 100 µM | TGI (SR leukemia): > 100 µM | TGI (T-47D breast): > 100 µM

C=CC(=O)Nc1cc(Nc2nccc(-c3cn(C)c4ccccc34)n2)c(OC)cc1N(C)CCN(C)C
GI50 (A549 NSCLC): 1.4 µM and 1.29 µM | TGI (A549 NSCLC): 4.17 µM and 3.87 µM | GI50 (HS 578T breast): 3.32 µM and 1.89 µM | TGI (HS 578T breast): 16 µM and 9.69 µM | GI50 (LOX IMVI melanoma): 1.75 µM and 1.41 µM | TGI (LOX IMVI melanoma): 3.55 µM and 2.86 µM | GI50 (M14 melanoma): 1.91 µM and 1.73 µM | TGI (M14 melanoma): 3.6 µM and 3.32 µM | GI50 (MOLT-4 leukemia): 1.77 µM and 1.49 µM | TGI (MOLT-4 leukemia): 5.08 µM and 3.66 µM | GI50 (NCI-H226 lung): 3.93 µM and 1.39 µM | TGI (NCI-H226 lung): 13.1 µM and 3.4 µM | GI50 (OVCAR-4 ovarian): 2.74 µM and 2.42 µM | TGI (OVCAR-4 ovarian): 20.5 µM and > 10 µM | GI50 (RXF 393 renal): 1.45 µM and 1.34 µM | TGI (RXF 393 renal): 3.1 µM and 2.98 µM | GI50 (SR leukemia): 1.29 µM and 1.62 µM | TGI (SR leukemia): 4.94 µM and 3.77 µM | GI50 (T-47D breast): 0.815 µM and 0.363 µM | TGI (T-47D breast): 11.6 µM and > 10 µM

COCCn1cc(-c2nc(-c3cc4cccnc4[nH]3)cs2)c2cc(OC)ccc21
GI50 (A549 NSCLC): 3.79 µM | TGI (A549 NSCLC): > 100 µM | GI50 (HS 578T breast): 1.99 µM | TGI (HS 578T breast): 6.78 µM | GI50 (LOX IMVI melanoma): 3.35 µM | TGI (LOX IMVI melanoma): 35.1 µM | GI50 (M14 melanoma): 4.8 µM | TGI (M14 melanoma): > 100 µM | GI50 (MOLT-4 leukemia): 4.24 µM | TGI (MOLT-4 leukemia): > 46.7 µM | GI50 (NCI-H226 lung): 1.57 µM | TGI (NCI-H226 lung): 27.6 µM | GI50 (OVCAR-4 ovarian): 0.0278 µM | TGI (OVCAR-4 ovarian): > 30.8 µM | GI50 (RXF 393 renal): 0.95 µM | TGI (RXF 393 renal): 5.41 µM | GI50 (SR leukemia): 1.21 µM | TGI (SR leukemia): > 29.7 µM | GI50 (T-47D breast): 0.033 µM | TGI (T-47D breast): 0.992 µM

NC(=S)N/N=C\c1nccc2c(C(F)(F)F)cccc12
GI50 (A549 NSCLC): 0.293 µM | TGI (A549 NSCLC): 3.26 µM | GI50 (HS 578T breast): 1.36 µM | TGI (HS 578T breast): > 58.8 µM | GI50 (LOX IMVI melanoma): 0.277 µM | TGI (LOX IMVI melanoma): 10.8 µM | GI50 (M14 melanoma): 0.224 µM | TGI (M14 melanoma): 0.706 µM | GI50 (MOLT-4 leukemia): 0.355 µM | TGI (MOLT-4 leukemia): 15.6 µM | GI50 (NCI-H226 lung): 0.259 µM | TGI (NCI-H226 lung): 2.39 µM | GI50 (OVCAR-4 ovarian): 0.162 µM | TGI (OVCAR-4 ovarian): 24.8 µM | GI50 (RXF 393 renal): 0.251 µM | TGI (RXF 393 renal): 2.53 µM | GI50 (SR leukemia): 0.0997 µM | TGI (SR leukemia): > 37 µM | GI50 (T-47D breast): 0.335 µM | TGI (T-47D breast): 25.7 µM

OC(c1cc(C(F)(F)F)nc2c(C(F)(F)F)cccc12)C1CCCCN1 (stereo not given)
GI50 (A549 NSCLC): 2.24 µM | TGI (A549 NSCLC): 6.33 µM | GI50 (HS 578T breast): 3.8 µM | TGI (HS 578T breast): 19.5 µM | GI50 (LOX IMVI melanoma): 1.65 µM | TGI (LOX IMVI melanoma): 3.15 µM | GI50 (M14 melanoma): 1.83 µM | TGI (M14 melanoma): 3.41 µM | GI50 (MOLT-4 leukemia): 2.77 µM | TGI (MOLT-4 leukemia): 6.53 µM | GI50 (NCI-H226 lung): 1.8 µM | TGI (NCI-H226 lung): 3.7 µM | GI50 (OVCAR-4 ovarian): 2.81 µM | TGI (OVCAR-4 ovarian): 7.07 µM | GI50 (RXF 393 renal): 1.71 µM | TGI (RXF 393 renal): 4.53 µM | GI50 (SR leukemia): 3.59 µM | TGI (SR leukemia): 8.27 µM | GI50 (T-47D breast): 1.76 µM | TGI (T-47D breast): 4.11 µM

NCCNCCNCCN
GI50 (A549 NSCLC): > 100 µM | TGI (A549 NSCLC): > 100 µM | GI50 (HS 578T breast): > 100 µM | TGI (HS 578T breast): > 100 µM | GI50 (LOX IMVI melanoma): > 100 µM | TGI (LOX IMVI melanoma): > 100 µM | GI50 (M14 melanoma): > 100 µM | TGI (M14 melanoma): > 100 µM | GI50 (MOLT-4 leukemia): > 100 µM | TGI (MOLT-4 leukemia): > 100 µM | GI50 (NCI-H226 lung): > 100 µM | TGI (NCI-H226 lung): > 100 µM | GI50 (OVCAR-4 ovarian): > 100 µM | TGI (OVCAR-4 ovarian): > 100 µM | GI50 (RXF 393 renal): > 100 µM | TGI (RXF 393 renal): > 100 µM | GI50 (SR leukemia): > 100 µM | TGI (SR leukemia): > 100 µM | GI50 (T-47D breast): > 100 µM | TGI (T-47D breast): > 100 µM

COc1c2ccccc2c(OC)c2[nH]c(=O)ccc12
GI50 (A549 NSCLC): 2.43 µM | TGI (A549 NSCLC): > 20.6 µM | GI50 (HS 578T breast): 2.68 µM | TGI (HS 578T breast): 20.7 µM | GI50 (LOX IMVI melanoma): 1.84 µM | TGI (LOX IMVI melanoma): > 23 µM | GI50 (M14 melanoma): 0.843 µM | TGI (M14 melanoma): 2.37 µM | GI50 (MOLT-4 leukemia): > 21.5 µM | TGI (MOLT-4 leukemia): > 100 µM | GI50 (NCI-H226 lung): 2.37 µM | TGI (NCI-H226 lung): 7.22 µM | GI50 (OVCAR-4 ovarian): 11.1 µM | TGI (OVCAR-4 ovarian): > 100 µM | GI50 (RXF 393 renal): 16.3 µM | TGI (RXF 393 renal): > 100 µM | GI50 (SR leukemia): 6.61 µM | TGI (SR leukemia): > 100 µM | GI50 (T-47D breast): 21.5 µM | TGI (T-47D breast): > 100 µM

CC(=O)Nc1cc2ccc(=O)oc2cc1Cl
TGI (A549 NSCLC): > 100 µM | TGI (HS 578T breast): > 100 µM | TGI (LOX IMVI melanoma): > 100 µM | TGI (M14 melanoma): > 100 µM | TGI (MOLT-4 leukemia): > 100 µM | TGI (NCI-H226 lung): > 100 µM | TGI (OVCAR-4 ovarian): > 100 µM | TGI (RXF 393 renal): > 100 µM | TGI (SR leukemia): > 100 µM | TGI (T-47D breast): > 100 µM

C=C(C)C(=O)O[C@@H]1C[C@@]2(C)O[C@@H]2C[C@H](O)/C(C)=C/[C@H]2OC(=O)C(=C)[C@@H]21
TGI (A549 NSCLC): > 100 µM | TGI (HS 578T breast): > 100 µM | TGI (LOX IMVI melanoma): > 100 µM | TGI (M14 melanoma): > 100 µM | TGI (MOLT-4 leukemia): > 100 µM | TGI (NCI-H226 lung): > 100 µM | TGI (OVCAR-4 ovarian): 78.9 µM | TGI (RXF 393 renal): > 100 µM | TGI (SR leukemia): > 100 µM | TGI (T-47D breast): > 100 µM
